Test in all cases: biochemical
Holding throughout (parameters): DiscoverX KINOMEscan scanMAX competition binding panel, single concentration, percent of control; remaining binding: dose or concentration left out as unconfirmed
What all share (conditions): KINOMEscan binding, percent of control; read-out: Table S4_SCANMAX REPORT - related to Fig. 1 / Percent Control

The target of test [1] is FLT3-autoinhibited (Homo sapiens, UniProt P36888). The text has this:
(§1) Certain PTH are potent inhibitors of TLK1 ([Ronald et al., 2013]), and by inference TLK2, as these proteins must homo- and hetero-dimerize for full activation ([Mortuza et al., 2018]), in addition to being highly similar in sequence and structure, and thus similarly targetable. […] Two noteworthy observations are that PTHs are structurally different from many known ATP competitive inhibitors, and that J54 was carefully designed based on considerations reported previously for the THD—the Kinomescan has confirmed that J54 is specific to TLKs. We should point out that although PTH were the first reported inhibitors of TLKs ([Ronald et al., 2013]), other inhibitors particularly of TLK2 have since been reported ([Kim et al., 2016]), some based on structure docking ([Mortuza et al., 2018]), although neither their potency and effects in vivo nor their potential off-target effects have not been reported as they were selected from libraries of kinase inhibitors. Supplementary file mmc2.xlsx: Table S4. SCANMAX Table, Related to Figure 1 Kinomescan of J54 inhibitory activity on human kinases.

Test [2] addresses EGFR(L858R,T790M) (Homo sapiens, UniProt P00533, L858R/T790M).
Excerpt: as §1

Test [3] concerns the target MAP3K2 (Homo sapiens, UniProt Q9Y2U5).
Excerpt: as §1

Test [4] concerns the target T1, PFCDPK1(P.falciparum) (Plasmodium falciparum, UniProt P62344).
T1 construct: gene CDPK1
Excerpt: as §1

In test [5] the target is T2, JAK3(JH1domain-catalytic) (Homo sapiens, UniProt P52333).
T2 construct: JH1domain-catalytic
T2 sequence (P52333 whole entry): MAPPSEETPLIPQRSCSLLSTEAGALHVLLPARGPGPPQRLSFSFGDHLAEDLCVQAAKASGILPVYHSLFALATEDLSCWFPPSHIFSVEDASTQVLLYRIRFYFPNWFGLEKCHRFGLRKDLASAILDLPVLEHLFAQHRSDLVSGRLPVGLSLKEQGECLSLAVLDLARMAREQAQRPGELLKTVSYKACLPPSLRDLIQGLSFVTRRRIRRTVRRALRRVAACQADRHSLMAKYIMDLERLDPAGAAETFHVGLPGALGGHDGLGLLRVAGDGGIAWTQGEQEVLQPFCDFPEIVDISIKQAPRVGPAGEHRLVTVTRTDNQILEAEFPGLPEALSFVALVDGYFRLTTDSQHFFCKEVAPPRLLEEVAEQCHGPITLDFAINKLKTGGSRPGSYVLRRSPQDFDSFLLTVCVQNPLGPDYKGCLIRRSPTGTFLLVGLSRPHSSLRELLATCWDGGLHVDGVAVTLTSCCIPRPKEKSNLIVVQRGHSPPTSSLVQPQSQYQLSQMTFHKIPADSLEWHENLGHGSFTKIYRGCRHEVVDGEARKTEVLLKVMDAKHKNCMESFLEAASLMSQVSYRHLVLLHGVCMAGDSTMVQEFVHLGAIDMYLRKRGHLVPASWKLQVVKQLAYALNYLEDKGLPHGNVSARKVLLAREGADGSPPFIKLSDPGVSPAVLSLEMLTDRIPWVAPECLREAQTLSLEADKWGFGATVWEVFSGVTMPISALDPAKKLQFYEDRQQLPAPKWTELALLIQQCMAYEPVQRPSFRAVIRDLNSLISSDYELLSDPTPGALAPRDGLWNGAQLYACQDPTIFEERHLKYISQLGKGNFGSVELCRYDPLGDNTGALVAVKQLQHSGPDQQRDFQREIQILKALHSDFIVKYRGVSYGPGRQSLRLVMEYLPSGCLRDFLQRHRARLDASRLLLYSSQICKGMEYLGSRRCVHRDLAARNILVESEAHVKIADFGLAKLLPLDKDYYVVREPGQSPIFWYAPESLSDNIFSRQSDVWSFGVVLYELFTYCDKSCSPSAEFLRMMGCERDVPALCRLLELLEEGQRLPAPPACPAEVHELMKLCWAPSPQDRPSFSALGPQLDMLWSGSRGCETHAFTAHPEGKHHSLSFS
Excerpt: as §1

Test [6] has as its target T3, TYK2(JH2domain-pseudokinase) (Homo sapiens, UniProt P29597).
T3 construct: JH2domain-pseudokinase
Excerpt: as §1

Test [7] addresses STK39 (Homo sapiens, UniProt Q9UEW8).
Excerpt: as §1

Test [8] addresses RIOK3 (Homo sapiens, UniProt O14730).
Excerpt: as §1

The target in test [9] is TNK1 (Homo sapiens, UniProt Q13470).
Excerpt: as §1

For test [10], the target named is HIPK3 (Homo sapiens, UniProt Q9H422).
Excerpt: as §1

For test [11], the target named is TGFBR1 (Homo sapiens, UniProt P36897).
Excerpt: as §1

Test [12] concerns the target BRAF(V600E) (Homo sapiens, UniProt P15056, V600E).
Excerpt: as §1

Test [13] has as its target CAMK1D (Homo sapiens, UniProt Q8IU85).
Excerpt: as §1

In test [14] the target is MET (Homo sapiens, UniProt P08581).
Sequence of MET (P08581 whole entry): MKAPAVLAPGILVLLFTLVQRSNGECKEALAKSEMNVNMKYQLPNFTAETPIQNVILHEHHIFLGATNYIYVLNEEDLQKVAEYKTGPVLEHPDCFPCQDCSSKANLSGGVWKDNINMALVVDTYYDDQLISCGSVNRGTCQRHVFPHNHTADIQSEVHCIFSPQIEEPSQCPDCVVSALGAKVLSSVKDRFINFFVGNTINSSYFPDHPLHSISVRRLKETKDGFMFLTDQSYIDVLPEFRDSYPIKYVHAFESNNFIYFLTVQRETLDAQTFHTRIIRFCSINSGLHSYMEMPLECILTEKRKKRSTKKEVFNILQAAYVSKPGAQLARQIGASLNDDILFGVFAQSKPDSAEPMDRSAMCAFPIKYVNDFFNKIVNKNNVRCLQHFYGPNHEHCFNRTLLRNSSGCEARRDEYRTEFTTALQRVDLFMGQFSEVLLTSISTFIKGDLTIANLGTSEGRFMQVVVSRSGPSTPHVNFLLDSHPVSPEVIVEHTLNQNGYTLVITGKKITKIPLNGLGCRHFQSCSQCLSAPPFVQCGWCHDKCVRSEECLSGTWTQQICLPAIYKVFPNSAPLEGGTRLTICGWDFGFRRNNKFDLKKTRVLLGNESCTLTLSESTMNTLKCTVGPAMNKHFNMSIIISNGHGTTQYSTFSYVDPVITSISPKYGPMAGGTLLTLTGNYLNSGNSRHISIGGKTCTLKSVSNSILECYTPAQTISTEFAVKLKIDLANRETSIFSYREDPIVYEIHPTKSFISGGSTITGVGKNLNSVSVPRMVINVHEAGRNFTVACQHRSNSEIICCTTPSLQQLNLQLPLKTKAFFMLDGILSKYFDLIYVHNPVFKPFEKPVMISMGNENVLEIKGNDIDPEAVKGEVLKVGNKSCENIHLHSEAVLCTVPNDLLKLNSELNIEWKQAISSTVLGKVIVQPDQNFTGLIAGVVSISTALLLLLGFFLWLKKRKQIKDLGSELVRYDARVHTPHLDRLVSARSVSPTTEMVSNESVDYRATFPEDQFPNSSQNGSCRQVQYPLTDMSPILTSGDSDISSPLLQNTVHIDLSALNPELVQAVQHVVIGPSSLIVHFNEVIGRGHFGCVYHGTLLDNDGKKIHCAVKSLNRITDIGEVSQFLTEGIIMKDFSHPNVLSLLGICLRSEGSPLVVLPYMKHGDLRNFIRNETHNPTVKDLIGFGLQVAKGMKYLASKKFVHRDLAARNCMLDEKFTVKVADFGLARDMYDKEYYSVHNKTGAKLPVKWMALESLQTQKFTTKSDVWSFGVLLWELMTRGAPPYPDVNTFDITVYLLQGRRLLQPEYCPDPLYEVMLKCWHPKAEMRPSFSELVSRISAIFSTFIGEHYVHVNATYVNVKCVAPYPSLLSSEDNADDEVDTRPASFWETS
Excerpt: as §1

For test [15], the target named is NLK (Homo sapiens, UniProt Q9UBE8).
Sequence of NLK (Q9UBE8 whole entry): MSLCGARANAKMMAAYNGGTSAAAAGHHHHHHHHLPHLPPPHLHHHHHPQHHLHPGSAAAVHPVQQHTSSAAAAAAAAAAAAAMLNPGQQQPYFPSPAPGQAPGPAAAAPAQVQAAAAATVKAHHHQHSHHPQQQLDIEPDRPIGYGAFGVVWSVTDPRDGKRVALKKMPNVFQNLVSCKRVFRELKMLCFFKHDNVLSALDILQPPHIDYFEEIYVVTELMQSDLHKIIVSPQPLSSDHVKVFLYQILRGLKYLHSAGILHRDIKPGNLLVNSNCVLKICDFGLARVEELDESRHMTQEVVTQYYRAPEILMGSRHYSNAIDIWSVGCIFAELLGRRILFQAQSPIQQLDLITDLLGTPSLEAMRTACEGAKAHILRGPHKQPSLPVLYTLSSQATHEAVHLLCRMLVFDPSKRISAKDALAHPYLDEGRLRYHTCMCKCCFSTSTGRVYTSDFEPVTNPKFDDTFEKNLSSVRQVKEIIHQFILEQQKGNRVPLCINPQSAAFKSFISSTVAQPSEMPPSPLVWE
Excerpt: as §1

In test [16] the target is T4, PYK2 (Homo sapiens, UniProt Q14289).
T4 construct: gene PTK2B
Excerpt: as §1

Test [17] addresses T5, ARK5 (Homo sapiens, UniProt O60285).
T5 construct: gene NUAK1
Excerpt: as §1

Test [18] has as its target GRK3 (Homo sapiens, UniProt P35626).
Excerpt: as §1

This note sets out measurements from publication PMC7486443, “Generation of Phenothiazine with Potent Anti-TLK1 Activity for Prostate Cancer Therapy” (iScience, 2020).

Sequence of EGFR(L858R,T790M) (P00533 whole entry T790M/L858R): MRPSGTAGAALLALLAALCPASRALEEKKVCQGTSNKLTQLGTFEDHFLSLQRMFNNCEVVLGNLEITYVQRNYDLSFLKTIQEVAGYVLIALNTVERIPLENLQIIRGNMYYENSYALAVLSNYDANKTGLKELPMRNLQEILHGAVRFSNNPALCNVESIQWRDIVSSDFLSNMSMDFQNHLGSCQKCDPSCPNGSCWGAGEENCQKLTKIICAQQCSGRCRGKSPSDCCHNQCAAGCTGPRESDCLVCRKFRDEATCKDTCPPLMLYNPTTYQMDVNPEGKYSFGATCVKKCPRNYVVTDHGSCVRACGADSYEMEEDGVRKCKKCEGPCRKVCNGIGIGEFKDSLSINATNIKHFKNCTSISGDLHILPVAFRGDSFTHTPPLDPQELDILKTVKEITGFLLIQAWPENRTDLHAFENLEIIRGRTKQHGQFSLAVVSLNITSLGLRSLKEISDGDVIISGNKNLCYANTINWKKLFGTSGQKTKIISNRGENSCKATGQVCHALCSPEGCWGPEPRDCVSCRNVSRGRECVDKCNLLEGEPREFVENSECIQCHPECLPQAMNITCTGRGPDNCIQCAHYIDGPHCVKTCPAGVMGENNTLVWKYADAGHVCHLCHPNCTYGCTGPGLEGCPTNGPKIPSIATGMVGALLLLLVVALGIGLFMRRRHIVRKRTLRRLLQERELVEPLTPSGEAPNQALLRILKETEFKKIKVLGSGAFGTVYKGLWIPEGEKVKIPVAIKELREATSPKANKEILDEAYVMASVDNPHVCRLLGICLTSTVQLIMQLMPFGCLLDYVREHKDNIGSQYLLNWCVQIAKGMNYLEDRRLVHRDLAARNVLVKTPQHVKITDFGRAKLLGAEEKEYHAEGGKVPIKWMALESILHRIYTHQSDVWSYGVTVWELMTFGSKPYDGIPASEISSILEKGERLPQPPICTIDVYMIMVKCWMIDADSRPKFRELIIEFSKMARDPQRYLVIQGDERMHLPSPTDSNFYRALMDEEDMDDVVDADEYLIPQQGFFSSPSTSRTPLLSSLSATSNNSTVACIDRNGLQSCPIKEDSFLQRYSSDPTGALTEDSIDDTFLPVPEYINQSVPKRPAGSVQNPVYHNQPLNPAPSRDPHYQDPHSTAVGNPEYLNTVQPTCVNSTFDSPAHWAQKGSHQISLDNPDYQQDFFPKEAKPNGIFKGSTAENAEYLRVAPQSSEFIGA
Sequence of RIOK3 (O14730 whole entry): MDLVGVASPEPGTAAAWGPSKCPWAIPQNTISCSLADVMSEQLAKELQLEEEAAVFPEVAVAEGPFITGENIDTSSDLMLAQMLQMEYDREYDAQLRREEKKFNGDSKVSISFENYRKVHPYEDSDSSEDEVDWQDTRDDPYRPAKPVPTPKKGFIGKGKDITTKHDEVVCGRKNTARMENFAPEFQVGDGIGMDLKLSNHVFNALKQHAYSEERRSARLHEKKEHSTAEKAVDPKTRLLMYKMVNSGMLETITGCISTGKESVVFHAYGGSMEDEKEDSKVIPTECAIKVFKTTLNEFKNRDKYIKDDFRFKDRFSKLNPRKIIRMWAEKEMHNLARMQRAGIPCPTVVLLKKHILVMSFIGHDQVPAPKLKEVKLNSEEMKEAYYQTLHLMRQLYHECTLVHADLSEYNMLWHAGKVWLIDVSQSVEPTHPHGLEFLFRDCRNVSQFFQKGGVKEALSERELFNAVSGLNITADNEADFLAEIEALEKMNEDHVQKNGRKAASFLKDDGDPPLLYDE

As to `c1ccc2c(c1)Sc1ccccc1N2CCN1CCOCC1` [J54], the remaining binding in [1] came to 100%; in test [2] it was 100%; in test [3], 100%; in [4] it was 100%; in test [5], 85%; in test [6], 100%. In addition, the remaining binding in test [7] came out at 100%; in test [8], 72%; in [9], 99%; in [10], 100%; in [11] it was 100%; in [12] it was 100%. Besides, the remaining binding is 85% in test [13]; 92% in test [14]; 91% in test [15]; 100% in test [16]; 79% in test [17]; 93% in test [18].
